Test results published in ChEMBL document CHEMBL1140811, “Inhibition of dipeptidyl peptidase-IV (DPP-IV) by atorvastatin” (Bioorg Med Chem Lett, 2008).
Active and inactive are the calls of the source. No cut-off for these calls is given here.

Experiments:
Dipeptidyl peptidase 4 [1] = molecular target: Dipeptidyl peptidase 4 (Sus scrofa, UniProt P22411); assay: Inhibition of pig DPP4
[2] = molecular target: Dipeptidyl peptidase 4 (Sus scrofa) (UniProt P22411); assay: Inhibition of pig DPP4 at 500 uM
Dipeptidyl peptidase 4 [3] = molecular target: T1, Dipeptidyl peptidase 4 (Homo sapiens, UniProt P27487); assay: Inhibition of DPP4 at 30 mM
Target sequence in this assay (P27487 whole entry, looked up): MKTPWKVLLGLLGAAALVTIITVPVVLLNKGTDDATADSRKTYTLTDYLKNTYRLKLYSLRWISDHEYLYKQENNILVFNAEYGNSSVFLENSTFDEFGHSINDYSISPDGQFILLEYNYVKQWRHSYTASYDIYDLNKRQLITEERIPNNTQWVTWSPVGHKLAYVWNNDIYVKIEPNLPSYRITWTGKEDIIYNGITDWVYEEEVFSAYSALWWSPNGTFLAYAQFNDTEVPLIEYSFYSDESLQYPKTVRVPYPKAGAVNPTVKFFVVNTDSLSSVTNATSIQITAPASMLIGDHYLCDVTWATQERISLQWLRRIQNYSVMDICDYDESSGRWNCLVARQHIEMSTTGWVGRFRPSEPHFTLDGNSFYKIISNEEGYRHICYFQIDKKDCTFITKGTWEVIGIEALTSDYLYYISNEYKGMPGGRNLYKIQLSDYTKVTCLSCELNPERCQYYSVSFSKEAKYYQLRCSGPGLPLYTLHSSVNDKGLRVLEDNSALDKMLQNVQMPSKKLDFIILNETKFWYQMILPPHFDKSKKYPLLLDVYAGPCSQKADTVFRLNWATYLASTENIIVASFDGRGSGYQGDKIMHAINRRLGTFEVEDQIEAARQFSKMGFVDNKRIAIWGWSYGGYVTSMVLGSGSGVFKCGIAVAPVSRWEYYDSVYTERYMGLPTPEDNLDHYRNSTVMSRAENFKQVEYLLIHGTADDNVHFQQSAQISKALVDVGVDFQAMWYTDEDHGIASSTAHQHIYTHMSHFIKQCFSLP

Dipeptidyl peptidase 4 [4] = molecular target: T1, Dipeptidyl peptidase 4; assay: Inhibition of DPP4 at 10 mM
Target sequence in this assay (P27487 whole entry, looked up): as above

Dipeptidyl peptidase 4 [5] = molecular target: T1, Dipeptidyl peptidase 4; assay: Inhibition of DPP4 upto 3.3 mM
Target sequence in this assay (P27487 whole entry, looked up): as above

Dipeptidyl peptidase 4 [6] = molecular target: T1, Dipeptidyl peptidase 4; assay: Inhibition of DPP4
Target sequence in this assay (P27487 whole entry): as the sequence (P27487 whole entry, looked up) above

Sequence of Dipeptidyl peptidase 4 (Sus scrofa) (P22411 whole entry, looked up): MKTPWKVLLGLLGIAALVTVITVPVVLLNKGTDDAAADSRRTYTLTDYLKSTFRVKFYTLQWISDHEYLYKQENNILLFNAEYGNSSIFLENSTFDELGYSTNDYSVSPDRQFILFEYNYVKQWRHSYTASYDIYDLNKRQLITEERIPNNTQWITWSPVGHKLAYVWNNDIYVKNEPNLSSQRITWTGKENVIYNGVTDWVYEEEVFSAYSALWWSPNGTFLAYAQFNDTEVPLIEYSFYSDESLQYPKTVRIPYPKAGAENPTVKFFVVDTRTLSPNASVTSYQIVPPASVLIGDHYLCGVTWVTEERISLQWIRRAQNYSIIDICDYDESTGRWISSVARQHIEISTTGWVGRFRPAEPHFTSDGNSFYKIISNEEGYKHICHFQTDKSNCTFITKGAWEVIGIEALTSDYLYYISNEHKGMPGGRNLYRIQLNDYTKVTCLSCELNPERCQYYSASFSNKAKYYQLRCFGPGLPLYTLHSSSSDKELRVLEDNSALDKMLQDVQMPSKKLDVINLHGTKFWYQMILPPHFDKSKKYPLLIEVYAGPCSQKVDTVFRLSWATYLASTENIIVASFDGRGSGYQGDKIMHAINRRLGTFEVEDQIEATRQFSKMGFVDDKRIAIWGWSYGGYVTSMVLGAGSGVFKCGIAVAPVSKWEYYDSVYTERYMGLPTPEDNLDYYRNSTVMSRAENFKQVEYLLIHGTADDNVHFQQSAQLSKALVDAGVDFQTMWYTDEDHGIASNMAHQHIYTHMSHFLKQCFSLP
Sequence of Dipeptidyl peptidase 4 (Sus scrofa, UniProt P22411) (P22411 whole entry): as the sequence (P22411 whole entry, looked up) above

## CC(C)c1c(C(=O)Nc2ccccc2)c(-c2ccccc2)c(-c2ccc(F)cc2)n1CC[C@@H](O)C[C@@H](O)CC(=O)O [ATORVASTATIN]
Dipeptidyl peptidase 4 [1]
  IC50: 175 µM
[2]
  inhibition: 66%

## CC(C)n1c(/C=C/[C@@H](O)C[C@@H](O)CC(=O)O)c(-c2ccc(F)cc2)c2ccccc21
[2]
  inhibition: 8%

## CN(C)C(=N)NC(=N)N
Dipeptidyl peptidase 4 [3]
  inhibition: 21.9%
Dipeptidyl peptidase 4 [4]
  inhibition: 12.7%
Dipeptidyl peptidase 4 [5]
  Activity: inactive

## CC(C)c1nc(N(C)S(C)(=O)=O)nc(-c2ccc(F)cc2)c1/C=C/[C@@H](O)C[C@@H](O)CC(=O)O
[2]
  inhibition: 4%

## CN(C)C(=N)N=C(N)N [METFORMIN]
Dipeptidyl peptidase 4 [6]
  IC50: 29 µM
